Patent US20240325406A1, “ANTIBACTERIAL COMPOSITIONS” (Wockhardt Limited, priority 2016, published 2024)

How the values were obtained:
Assay in all cases: Quantitative drug diffusion (disc) assay per CLSI, zone of inhibition
Format in all cases: cell-based
Set-up in all cases: key to CLSI susceptibility interpretation: (R): Resistant;; (I): Intermediate;; (S): Sensitive (Interpretation as per CLSI recommendations, 2010)
E. coli B-89 = tested on: E. coli B-89
Description: (§1) Antibacterial activity of cefepime combination with tazobactam against various bacterial strains, including those bacteria that are known to product one or more beta-lactamase, was investigated in quantitative drug diffusion assay performed as per CLSI recommendations (Clinical and Laboratory Standards Institute (CLSI), performance Standards for Antimicrobial Susceptibility Testing, 20th Informational Supplement, M 100-S20, Volume 30, No. 1, 2010).
(§2) In a typical study, overnight grown bacterial cultures after appropriate dilution were seed inoculated in the molten, cooled agar media and plates poured. Antibacterial agents containing 6 mm diameter discs were placed on the top of the agar surface. Zone of inhibition based observation was performed after 16 to 18 hours of incubation at 35±2° C. in ambient air. These assays are routinely used in determining possibility of treating a particular infection using given antibacterial agent or a composition. In general, zone inhibition values in the sensitive(S) range indicate that the strain is susceptible to that antibacterial agent or composition. It is generally assumed that the antibacterial agent or the combination under consideration would not be effective in treating the infection, if the zone inhibition values are in the resistant (R) range.

E. coli M50 = tested on: E. coli M50
Description: as §1, §2

E. coli B-123 = tested on: E. coli B-123
Description: as §1, §2

E. coli M-138 = tested on: E. coli M-138
Description: as §1, §2

E. coli 7MP = tested on: E. coli 7MP
Description: as §1, §2

E. coli S-112 = tested on: E. coli S-112
Description: as §1, §2

[1] = 6 mm discs, 16 to 18 hours at 35±2° C., tazobactam 10 mcg in the combination
[2] = interpretation of zone of inhibition

Which “Zone of Inhibition” value (E. coli B-89; [1]) does the source give for CO/N=C(\C(=O)N[C@@H]1C(=O)N2C(C(=O)[O-])=C(C[N+]3(C)CCCC3)CS[C@H]12)c1csc(N)n1 [Cefepime, cefepime] here?
The value was 8 mm.

What about the CLSI susceptibility interpretation (E. coli B-89; [2]) of the same compound?
Its CLSI susceptibility interpretation is “R”.

And the “Zone of Inhibition” value (E. coli M50; [1])?
Its value is 7.5 mm.

And the CLSI susceptibility interpretation (E. coli M50; [2])?
The CLSI susceptibility interpretation was “R”.

And the “Zone of Inhibition” value (E. coli B-123; [1])?
Its value is 8 mm.

And the CLSI susceptibility interpretation (E. coli B-123; [2])?
Its CLSI susceptibility interpretation is “R”.

What about the “Zone of Inhibition” value (E. coli M-138; [1]) of the same compound?
Its value is “Nil”.

And the CLSI susceptibility interpretation (E. coli M-138; [2])?
The CLSI susceptibility interpretation was “R”.

And the “Zone of Inhibition” value (E. coli 7MP; [1])?
Its value is 16 mm.

And the CLSI susceptibility interpretation (E. coli 7MP; [2])?
The CLSI susceptibility interpretation was “I”.

What about the “Zone of Inhibition” value (E. coli S-112; [1]) of the same compound?
Its value is 17 mm.

And the CLSI susceptibility interpretation (E. coli S-112; [2])?
Its CLSI susceptibility interpretation is “I”.
